pIC50: −log10 of the molar value.
How the values were obtained:
[1] = target: T1, WRN helicase (aa N517-P1238) (Homo sapiens, UniProt Q14191); assay: WRN ATPase assay (DNA dependent ATP hydrolysis, ADP-Glo); assay type: biochemical; conditions: 3 hours pre-incubation, 300 micromolar ATP, FLAP26 DNA; geometric mean of at least 2
T1 construct: The core helicase motif of the WRN protein (aa N517-P1238) was produced for this assay; His (N); ZZ (N); 3C protease cleavage site (N); made in house; host or cells: Sf21 insect cells (baculovirus; virus and BIICs made in SF9)
From the text: An ATPase assay was set up to measure the DNA dependent ATP hydrolysis activity of WRN helicase. This assay was used also to assess the inhibition properties of compounds of the invention on DNA dependent WRN ATPase activity.
The core helicase motif of the WRN protein (aa N517-P1238) was produced for this assay (protein production as described above). […] The ADP-Glo assay kit (Promega, Madison, WI) allowing the quantification of ADP produced in ATP hydrolysis reactions was used for setting up this assay.
Time course experiments were first performed in order to determine the best enzymatic assay conditions (including buffer conditions, reaction time and concentrations of protein, ATP and DNA substrates). A typical reaction consists of 10 nM WRN protein, 0.2 nM FLAP26, and 300 micromolar ATP in the following assay buffer: 30 mM Tris pH7.5, 2 mM MgCl2, 0.02% BSA, 50 mM NaCl, 0.1% pluronic F127 prepared in DNAse free water.
To evaluate the inhibition properties of compounds of the invention, serial dilutions were prepared in DMSO (10 half log dilutions from a 10 mM DMSO solution). […] The reaction was stopped with the addition of 5 microliters of the first ADP-Glo reagent and incubated for one hour to remove the excess amount of ATP. Afterwards, 10 microliters of ATP detection reagent was added and incubated for an additional hour before reading. Luminescence output was recorded using Tecan 1000 reader, with 5 minutes delay before reading. Each concentration of compound was tested in duplicates in the assay plate.
Following normalization of activity values for the wells to % inhibition (% inhibition=[(high control-sample)/(high control-low control)]×100), IC50 fitting was carried out from the duplicate determinations present on each plate according to [4]. Data analysis can also be carried out using commercially available software designed to derive IC50 values using 4-parameter fits (e.g. GraphPad Prism, XL fit). The reported IC50 values are the geometrical means of at least 2 independent replicates.

[2] = test system: DLD1-WRN-KO cells; assay: Proliferation assay DLD1-WRN-KO (CellTiterGlo, off-target effects); assay type: cell-based; conditions: 96 hours, geometric mean of at least 2
Procedure: The WRN-knockdown insensitive colon carcinoma cell line DLD-1 (RRID: CVCL_0248) was obtained from the Korean Cell Line Bank (KCLB), and used to generate a derivative in which the endogenous WRN gene copies were knocked out by CRISPR-mediated editing using standard CRISPR methods. The resulting cell line, DLD1-WRN-KO, was used to assess potential off-target compound effects. […]
Three replicate plates were prepared for each compound treatment condition. In addition, one plate (termed “day 0”) was prepared to quantify the number of viable cells at the time of compound addition. Following overnight incubation at 37° C. in a humidified 5% CO2 atmosphere, eight 3-fold serial dilutions of a given compound stock (obtained at a concentration of 10 mM in DMSO and stored at 4° C.) were dispensed directly into each of the triplicate assay plates using a HP 300D non-contact Digital Dispenser (TECAN). The final concentration of DMSO was normalized to 0.1% in all wells. 96 hours after compound addition, cellular ATP levels as a surrogate for cell viability was assessed following addition of 50 microliters CellTiterGlo (Promega Cat #G7573) reagent and luminescence quantification on a MPLEX multi-mode plate-reader (TECAN) following a 10 minute incubation at room temperature. The number of viable cells in the “day 0” plate were quantified identically on the day of compound addition.
For data analysis, the assay background signal that was determined in wells containing medium, but no cells, was subtracted from all other data points prior to further calculations. The extent of growth inhibition and potential cell kill was assessed by comparing the ATP levels (measured using CellTiterGlo, Promega) in compound-treated cells with those present at the time of compound addition. […] 100%, 0% and −100% signify absence of growth inhibition, growth stasis, and complete cell kill, respectively. Compound concentrations leading to half-maximal growth inhibition (GI50) and residual cell viability at the highest tested compound concentration (Data (cmax), expressed in percent) were routinely calculated. Data analysis can also be carried out using commercially available software designed to derive IC50 values using 4-parameter fits (e.g. GraphPad Prism, XL fit). The reported GI50 values are the geometrical means of at least 2 independent replicates.

T1 sequence (Q14191 517-1238): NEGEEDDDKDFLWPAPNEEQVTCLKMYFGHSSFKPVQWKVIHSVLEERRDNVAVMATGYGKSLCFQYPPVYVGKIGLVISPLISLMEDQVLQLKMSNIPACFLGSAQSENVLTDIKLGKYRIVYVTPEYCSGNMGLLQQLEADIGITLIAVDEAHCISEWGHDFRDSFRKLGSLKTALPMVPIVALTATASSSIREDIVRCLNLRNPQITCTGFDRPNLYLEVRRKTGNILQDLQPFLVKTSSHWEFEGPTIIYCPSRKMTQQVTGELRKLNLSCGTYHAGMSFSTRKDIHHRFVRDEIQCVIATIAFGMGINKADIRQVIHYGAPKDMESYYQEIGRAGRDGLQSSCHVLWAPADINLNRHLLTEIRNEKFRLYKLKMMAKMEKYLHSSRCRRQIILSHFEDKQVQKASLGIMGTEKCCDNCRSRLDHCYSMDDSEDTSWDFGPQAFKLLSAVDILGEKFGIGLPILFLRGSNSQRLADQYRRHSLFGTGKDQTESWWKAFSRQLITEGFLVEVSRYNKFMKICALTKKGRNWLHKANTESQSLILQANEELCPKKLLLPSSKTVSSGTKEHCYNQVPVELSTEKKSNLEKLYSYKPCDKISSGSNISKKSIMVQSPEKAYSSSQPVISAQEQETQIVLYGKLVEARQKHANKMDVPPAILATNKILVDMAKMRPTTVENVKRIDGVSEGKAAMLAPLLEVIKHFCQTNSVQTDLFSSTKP

Structure (SMILES) | pIC50 [1] | GI50 [2] [nM]
CC(=O)N1CCN(c2nc3n(CC(=O)Nc4ccc(Cl)cc4)c(C)c(N4CCN(C(=O)c5cnon5)CC4)c(=O)n3n2)CC1 [Example 9, 2-(6-(4-(1,2,5-oxadiazole-3-carbonyl)piperazin-1-yl)-2-(4-acetylpiperazin-1-yl)-5-methyl-7-oxo-[1,2,4]triazolo[1,5-a]pyrimidin-4(7H)-yl)-N-(4-chlorophenyl)acetamide] | 7.10 | > 10000
CC(=O)N1CCN(c2nc3n(CC(=O)Nc4ccc(Cl)cc4)c(C)c(N4CCN(C(=O)c5[nH]c(=O)[nH]c(=O)c5N)CC4)c(=O)n3n2)CC1 [Example 10, 2-(2-(4-acetylpiperazin-1-yl)-6-(4-(5-amino-2,6-dioxo-1,2,3,6-tetrahydropyrimidine-4-carbonyl)piperazin-1-yl)-5-methyl-7-oxo-[1,2,4]triazolo[1,5-a]pyrimidin-4(7H)-yl)-N-(4-chlorophenyl)acetamide] | 7.05 | > 10000
CC(=O)N1CCN(c2c(C)n(CC(=O)Nc3ccc(Cl)c(C(F)(F)F)c3)c3nc(C4=CCN(C(=O)OC(C)(C)C)CC4)nn3c2=O)CC1 [Example 74, tert-butyl 4-(6-(4-acetylpiperazin-1-yl)-4-(2-((4-chloro-3-(trifluoromethyl)phenyl)amino)-2-oxoethyl)-5-methyl-7-oxo-4,7-dihydro-[1,2,4]triazolo[1,5-a]pyrimidin-2-yl)-5,6-dihydropyridine-1(2H)-carboxylate] | 6.70 | 600
CC(=O)N1CCN(c2c(C)n(CC(=O)Nc3ccc(Cl)c(Cl)c3)c3nc(-c4ccc(CN(C)C(=O)CCN=[N+]=[N-])cc4)nn3c2=O)CC1 [Example 86, N-(4-(6-(4-acetylpiperazin-1-yl)-4-(2-((3,4-dichlorophenyl)amino)-2-oxoethyl)-5-methyl-7-oxo-4,7-dihydro-[1,2,4]triazolo[1,5-a]pyrimidin-2-yl)benzyl)-3-azido-N-methylpropanamide] | 7.15 | > 10000
CC(=O)N1CCN(c2c(C)n(CC(=O)Nc3ccc(Cl)c(Cl)c3)c3nc(C4=CCN(C(=O)OC5CC/C=C/CCC5)CC4)nn3c2=O)CC1 (stereo not drawn) [Example 93, (E)-cyclooct-4-en-1-yl 4-(6-(4-acetylpiperazin-1-yl)-4-(2-((3,4-dichlorophenyl)amino)-2-oxoethyl)-5-methyl-7-oxo-4,7-dihydro-[1,2,4]triazolo[1,5-a]pyrimidin-2-yl)-3,6-dihydropyridine-1(2H)-carboxylate] | 6.15 | 5000
CC(=O)N1CCN(c2c(C)n(CC(=O)Nc3ccc(C(F)(F)F)cc3)c3nc(N4CCCCC4)nn3c2=O)CC1 [Example 111, 2-(6-(4-acetylpiperazin-1-yl)-5-methyl-7-oxo-2-(piperidin-1-yl)-[1,2,4]triazolo[1,5-a]pyrimidin-4(7H)-yl)-N-(4-(trifluoromethyl)phenyl)acetamide] | 6.70 | > 10000
CCOC(=O)C#Cc1nc2n(CC(=O)Nc3ccc(C(F)(F)F)cc3)c(C)c(N3CCN(C(C)=O)CC3)c(=O)n2n1 [Example 116, ethyl 3-(6-(4-acetylpiperazin-1-yl)-5-methyl-7-oxo-4-(2-oxo-2-((4-(trifluoromethyl)phenyl)amino)ethyl)-4,7-dihydro-[1,2,4]triazolo[1,5-a]pyrimidin-2-yl)propiolate] | 6.30 | 5000

Continued, values first:

pIC50 [1] | GI50 [2] [nM] | Structure (SMILES)
7.40 | > 10000 | CC(=O)N1CCN(c2nc3n(CC(=O)Nc4ccc(Cl)cc4)c(C)c(N4CCN(C(=O)c5nc[nH]c5C#N)CC4)c(=O)n3n2)CC1 [Example 7, 2-(2-(4-acetylpiperazin-1-yl)-6-(4-(5-cyano-1H-imidazole-4-carbonyl)piperazin-1-yl)-5-methyl-7-oxo-[1,2,4]triazolo[1,5-a]pyrimidin-4(7H)-yl)-N-(4-chlorophenyl)acetamide]
7.30 | > 10000 | CC(=O)N1CCN(c2nc3n(CC(=O)Nc4ccc(Cl)cc4)c(C)c(N4CCN(C(=O)c5n[nH]c(=O)[nH]5)CC4)c(=O)n3n2)CC1 [Example 8, 2-(2-(4-acetylpiperazin-1-yl)-5-methyl-7-oxo-6-(4-(5-oxo-4,5-dihydro-1H-1,2,4-triazole-3-carbonyl)piperazin-1-yl)-[1,2,4]triazolo[1,5-a]pyrimidin-4(7H)-yl)-N-(4-chlorophenyl)acetamide]
6.70 | 900 | CC(=O)N1CCN(c2c(C)n(CC(=O)Nc3ccc(Cl)c(Cl)c3)c3nc(C4=CCN(C(=O)OC(C)(C)C)CC4)nn3c2=O)CC1 [Example 75, tert-butyl 4-(6-(4-acetylpiperazin-1-yl)-4-(2-((3,4-dichlorophenyl)amino)-2-oxoethyl)-5-methyl-7-oxo-4,7-dihydro-[1,2,4]triazolo[1,5-a]pyrimidin-2-yl)-5,6-dihydropyridine-1(2H)-carboxylate]
6.22 | > 10000 | CC(=O)N1CCN(c2c(C)n(CC(=O)Nc3ccc(C(F)(F)F)cc3)c3nc(C4=CCC5(CCO5)CC4)nn3c2=O)CC1 (stereo not drawn) [Example 117, 2-(6-(4-acetylpiperazin-1-yl)-5-methyl-7-oxo-2-(1-oxaspiro[3.5]non-6-en-7-yl)-[1,2,4]triazolo[1,5-a]pyrimidin-4(7H)-yl)-N-(4-(trifluoromethyl)phenyl)acetamide]
– | > 10000 | CC(=O)N1CCC(c2c(C)n(CC(=O)Nc3ccc(C(F)(F)F)cc3)c3nc(-c4ccccc4)nn3c2=O)CC1 [Example 143, 2-(6-(1-acetylpiperidin-4-yl)-5-methyl-7-oxo-2-phenyl-[1,2,4]triazolo[1,5-a]pyrimidin-4(7H)-yl)-N-(4-(trifluoromethyl)phenyl) acetamide]
7.00 | 5000 | COc1cc(F)cc(C(=O)N2CCN(c3c(C)n(CC(=O)Nc4ccc(C(F)(F)F)cc4)c4nc(C5=CCOCC5)nn4c3=O)CC2)c1N [Example 153, 2-(6-(4-(2-amino-5-fluoro-3-methoxybenzoyl)piperazin-1-yl)-2-(3,6-dihydro-2H-pyran-4-yl)-5-methyl-7-oxo-[1,2,4]triazolo[1,5-a]pyrimidin-4(7H)-yl)-N-(4-(trifluoromethyl)phenyl)acetamide]
7.00 | 8000 | Cc1c(N2CCN(C(=O)c3n[nH]c4ccccc34)CC2)c(=O)n2nc(C3=CCOCC3)nc2n1CC(=O)Nc1ccc(C(F)(F)F)cc1 [Example 154, 2-(6-(4-(1H-indazole-3-carbonyl)piperazin-1-yl)-2-(3,6-dihydro-2H-pyran-4-yl)-5-methyl-7-oxo-[1,2,4]triazolo[1,5-a]pyrimidin-4(7H)-yl)-N-(4-(trifluoromethyl)phenyl)acetamide]
